“And” between values parts separate entries of the source, which are not always exact repeats. Equal values may be shown once.
Tests used:
Assay in all cases: cells
COLO-792 = assay type: functional, cell-based, Homo sapiens
Description: SANGER: Inhibition of human COLO-792 cell growth in a cell viability assay.

COLO-829 = assay type: functional, cell-based, Homo sapiens
Description: SANGER: Inhibition of human COLO-829 cell growth in a cell viability assay.

DOHH-2 = assay type: functional, cell-based; details: Homo sapiens;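 note: growth inhibition of human DOHH-2 cells, read out with a cell viability assay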
Description: SANGER: Inhibition of human DOHH-2 cell growth in a cell viability assay.

DSH1 = assay type: functional, cell-based, Homo sapiens;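 note: growth inhibition of human DSH1 cells, measured with a cell viability readout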
Description: SANGER: Inhibition of human DSH1 cell growth in a cell viability assay.

ES7 = assay type: functional, cell-based, Homo sapiens;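 note: growth inhibition of cultured human ES7 cells, read out as cell viability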
Description: SANGER: Inhibition of human ES7 cell growth in a cell viability assay.

EOL1 = assay type: functional, cell-based; details: Homo sapiens;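 note: growth inhibition of EoL-1 cells, read out by a cell viability assay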
Description: SANGER: Inhibition of human EoL-1-cell cell growth in a cell viability assay.

GI-1 = assay type: functional, cell-based, Homo sapiens;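 note: growth inhibition of human GI-1 cells, measured with a cell viability readout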
Description: SANGER: Inhibition of human GI-1 cell growth in a cell viability assay.

HCC38 = assay type: functional, cell-based, Homo sapiens;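 note: cell viability assay on the human HCC38 cell line, with IC50 marking the concentration that inhibits cell growth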
Description: SANGER: Inhibition of human HCC38 cell growth in a cell viability assay.

HCT-116 = assay type: functional, cell-based, Homo sapiens
Description: SANGER: Inhibition of human HCT-116 cell growth in a cell viability assay.

HGC-27 = assay type: functional, cell-based, Homo sapiens;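 note: growth inhibition of human HGC-27 cells, read out in a cell viability assay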
Description: SANGER: Inhibition of human HGC-27 cell growth in a cell viability assay.

HN = assay type: functional, cell-based, Homo sapiens
Description: SANGER: Inhibition of human HN cell growth in a cell viability assay.

HO-1-N-1 = assay type: functional, cell-based, Homo sapiens;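 note: growth inhibition of human HO-1-N-1 cells, read out with a cell viability assay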
Description: SANGER: Inhibition of human HO-1-N-1 cell growth in a cell viability assay.

HuTu80 = assay type: functional, cell-based, Homo sapiens, HUTU-80;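 note: growth inhibition of HuTu80 human cells, determined with a cell viability readout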
Description: SANGER: Inhibition of human HUTU-80 cell growth in a cell viability assay.

Huh-7 = assay type: functional, cell-based, Homo sapiens;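 note: HuH-7 cell growth inhibition, read out with a cell viability assay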
Description: SANGER: Inhibition of human HuH-7 cell growth in a cell viability assay.

K5 = assay type: functional, cell-based, Homo sapiens
Description: SANGER: Inhibition of human K5 cell growth in a cell viability assay.

KINGS-1 = assay type: functional, cell-based, Homo sapiens;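 note: cell viability assay measuring suppression of KINGS-1 cell growth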
Description: SANGER: Inhibition of human KINGS-1 cell growth in a cell viability assay.

KM-H2 = assay type: functional, cell-based; details: Homo sapiens;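 note: growth inhibition of KM-H2 cells, read out by a cell viability assay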
Description: SANGER: Inhibition of human KM-H2 cell growth in a cell viability assay.

KU-19-19 = assay type: functional, cell-based, Homo sapiens
Description: SANGER: Inhibition of human KU-19-19 cell growth in a cell viability assay.

KYSE-410 = assay type: functional, cell-based, Homo sapiens;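 note: growth inhibition of KYSE-410 cells, measured through a cell viability readout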
Description: SANGER: Inhibition of human KYSE-410 cell growth in a cell viability assay.

LB1047-RCC = assay type: functional, cell-based, Homo sapiens;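 note: inhibition of cell growth, determined with a cell viability assay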
Description: SANGER: Inhibition of human LB1047-RCC cell growth in a cell viability assay.

MFE-280 = assay type: functional, cell-based, Homo sapiens;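 note: growth inhibition of MFE-280 cells, determined with a cell viability readout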
Description: SANGER: Inhibition of human MFE-280 cell growth in a cell viability assay.

MFM-223 = assay type: functional, cell-based, Homo sapiens
Description: SANGER: Inhibition of human MFM-223 cell growth in a cell viability assay.

MHH-ES-1 = assay type: functional, cell-based, Homo sapiens;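 note: cell growth inhibition measured by a cell viability assay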
Description: SANGER: Inhibition of human MHH-ES-1 cell growth in a cell viability assay.

MKN-45 = assay type: functional, cell-based, Homo sapiens;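 note: growth inhibition of human MKN-45 cells, measured with a cell viability assay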
Description: SANGER: Inhibition of human MKN45 cell growth in a cell viability assay.

MLMA = assay type: functional, cell-based, Homo sapiens;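 note: growth inhibition of MLMA cells (human), determined through a cell viability readout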
Description: SANGER: Inhibition of human MLMA cell growth in a cell viability assay.

NB10 = assay type: functional, cell-based, Homo sapiens;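 note: growth inhibition of NB10 cells, read out by a cell viability assay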
Description: SANGER: Inhibition of human NB10 cell growth in a cell viability assay.

NCI-H1650 = assay type: functional, cell-based, Homo sapiens;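 note: growth inhibition of human NCI-H1650 cells measured by a cell viability assay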
Description: SANGER: Inhibition of human NCI-H1650 cell growth in a cell viability assay.

NCI-H1792 = assay type: functional, cell-based, Homo sapiens;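 note: growth inhibition of human NCI-H1792 cells, read out as cell viability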
Description: SANGER: Inhibition of human NCI-H1792 cell growth in a cell viability assay.

NCI-H2347 = assay type: functional, cell-based, Homo sapiens;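 note: growth inhibition of the cell line, read out with a cell viability assay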
Description: SANGER: Inhibition of human NCI-H2347 cell growth in a cell viability assay.

NCI-H526 = assay type: functional, cell-based; details: Homo sapiens;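 note: growth inhibition of the human NCI-H526 cell line, measured by a cell viability assay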
Description: SANGER: Inhibition of human NCI-H526 cell growth in a cell viability assay.

NH-12 = assay type: functional, cell-based, Homo sapiens;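 note: growth inhibition of NH-12 cells, read out with a cell viability assay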
Description: SANGER: Inhibition of human NH-12 cell growth in a cell viability assay.

OE19 = assay type: functional, cell-based, Homo sapiens;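 note: growth inhibition of OE19 cells, measured through a cell viability read-out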
Description: SANGER: Inhibition of human OE19 cell growth in a cell viability assay.

OMC-1 = assay type: functional, cell-based, Homo sapiens;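 note: growth inhibition of the OMC-1 cell line, measured by a cell viability assay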
Description: SANGER: Inhibition of human OMC-1 cell growth in a cell viability assay.

OVCAR-3 = assay type: functional, cell-based, Homo sapiens;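 note: growth inhibition of human OVCAR-3 cells, determined by a cell viability assay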
Description: SANGER: Inhibition of human OVCAR-3 cell growth in a cell viability assay.

RH-1 = assay type: functional, cell-based, Homo sapiens;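 note: growth inhibition of human RH-1 cells, read out with a cell viability assay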
Description: SANGER: Inhibition of human RH-1 cell growth in a cell viability assay.

SK-MEL-30 = assay type: functional, cell-based; details: Homo sapiens;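 note: growth inhibition of SK-MEL-30 cells, determined with a cell viability assay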
Description: SANGER: Inhibition of human SK-MEL-30 cell growth in a cell viability assay.

SK-PN-DW = assay type: functional, cell-based; details: Homo sapiens;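 note: growth inhibition measured with a viability assay on these cells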
Description: SANGER: Inhibition of human SK-PN-DW cell growth in a cell viability assay.

SW756 = assay type: functional, cell-based, Homo sapiens;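 note: growth inhibition of human SW756 cells, read out with a cell viability assay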
Description: SANGER: Inhibition of human SW756 cell growth in a cell viability assay.

SW 954 = assay type: functional, cell-based, Homo sapiens;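 note: growth inhibition of SW954 human cancer cells, read out as cell viability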
Description: SANGER: Inhibition of human SW954 cell growth in a cell viability assay.

T-24 = assay type: functional, cell-based, Homo sapiens;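 note: growth inhibition of T-24 cells, read out with a cell viability assay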
Description: SANGER: Inhibition of human T-24 cell growth in a cell viability assay.

CWR22R = assay type: functional, cell-based, Homo sapiens;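 note: growth inhibition of 22Rv1 cells, read out with a cell viability assay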
Description: SANGER: Inhibition of human 22RV1 cell growth in a cell viability assay.

A204 = assay type: functional, cell-based, Homo sapiens;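 note: growth inhibition of human A204 cells, read out with a cell viability assay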
Description: SANGER: Inhibition of human A204 cell growth in a cell viability assay.

ABC-1 = assay type: functional, cell-based, Homo sapiens;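 note: growth inhibition of human ABC-1 cells, read out by a cell viability assay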
Description: SANGER: Inhibition of human ABC-1 cell growth in a cell viability assay.

ACN = assay type: functional, cell-based, Homo sapiens;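 note: growth inhibition of the human ACN cell line, read out via cell viability testing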
Description: SANGER: Inhibition of human ACN cell growth in a cell viability assay.

BB49-HNC = assay type: functional, cell-based, Homo sapiens;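 note: cell viability assay read-out, reported as inhibition of BB49-HNC cell growth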
Description: SANGER: Inhibition of human BB49-HNC cell growth in a cell viability assay.

BV-173 = assay type: functional, cell-based; details: Homo sapiens
Description: SANGER: Inhibition of human BV-173 cell growth in a cell viability assay.

TYK-nu = assay type: functional, cell-based, Homo sapiens;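 note: growth inhibition of human TYK-nu cells, read out by a cell viability assay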
Description: SANGER: Inhibition of human TYK-nu cell growth in a cell viability assay.

U-87 MG = assay type: functional, cell-based, U-87MG ATCC; details: Homo sapiens;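 note: growth inhibition of the cells measured with a viability assay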
Description: SANGER: Inhibition of human U-87-MG cell growth in a cell viability assay.

YAPC = assay type: functional, cell-based, Homo sapiens;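 note: growth inhibition of YAPC cells, measured with a cell viability assay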
Description: SANGER: Inhibition of human YAPC cell growth in a cell viability assay.

CGTH-W-1 = assay type: functional, cell-based, Homo sapiens;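 note: growth inhibition of human CGTH-W-1 cells measured by cell viability assay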
Description: SANGER: Inhibition of human CGTH-W-1 cell growth in a cell viability assay.

COLO-678 = assay type: functional, cell-based, Homo sapiens
Description: SANGER: Inhibition of human COLO-678 cell growth in a cell viability assay.

Cc1cc([C@@H](C)Nc2ccccc2C(=O)O)c2nc(N3CCOCC3)cc(=O)n2c1 [AZD-6482]
IC50 (COLO-792; colo-792): > 5.12 µM
IC50 (COLO-829; colo-829): > 5.12 µM
IC50 (DOHH-2): 4.65 µM
IC50 (DSH1; Homo sapiens, DSH1): > 5.12 µM
IC50 (DSH1; dsh1): > 5.12 µM
IC50 (ES7; es7): 0.813 µM and 3.26 µM
IC50 (EOL1): > 5.12 µM
IC50 (GI-1; gi-1): 1.32 µM and > 5.12 µM
IC50 (HCC38; hcc38): > 5.12 µM
IC50 (HCT-116; hct-116): > 5.12 µM
IC50 (HGC-27; hgc-27): 1.18 µM and > 5.12 µM
IC50 (HN; hn): > 5.12 µM
IC50 (HO-1-N-1; ho-1-n-1): > 5.12 µM
IC50 (HuTu80; Homo sapiens, HuTu80): > 5.12 µM
IC50 (HuTu80; hutu-80): > 5.12 µM
IC50 (Huh-7; Homo sapiens, Huh-7): > 5.12 µM
IC50 (Huh-7; huh-7): > 5.12 µM
IC50 (K5; Homo sapiens, K5): > 5.12 µM
IC50 (K5; k5): > 5.12 µM
IC50 (KINGS-1; Homo sapiens, KINGS-1): > 5.12 µM
IC50 (KINGS-1; kings-1): > 5.12 µM
IC50 (KM-H2): > 5.12 µM
IC50 (KU-19-19; ku-19-19): > 5.12 µM
IC50 (KYSE-410; kyse-410): > 5.12 µM
IC50 (LB1047-RCC; Homo sapiens, LB1047-RCC): > 5.12 µM
IC50 (LB1047-RCC; lb1047-rcc): > 5.12 µM
IC50 (MFE-280; mfe-280): > 5.12 µM
IC50 (MFM-223; mfm-223): > 5.12 µM
IC50 (MHH-ES-1; mhh-es-1): > 5.12 µM
IC50 (MKN-45; Homo sapiens, MKN-45): > 5.12 µM
IC50 (MKN-45; mkn-45): > 5.12 µM
IC50 (MLMA; Homo sapiens, MLMA): 3.72 µM
IC50 (MLMA; mlma): 4.88 µM
IC50 (NB10; Homo sapiens, NB10): > 5.12 µM
IC50 (NB10; nb10): > 5.12 µM
IC50 (NCI-H1650; nci-h1650): > 5.12 µM
IC50 (NCI-H1792; nci-h1792): > 5.12 µM
IC50 (NCI-H2347; Homo sapiens, NCI-H2347): > 5.12 µM
IC50 (NCI-H2347; nci-h2347): > 5.12 µM
IC50 (NCI-H526): > 5.12 µM
IC50 (NH-12; Homo sapiens, NH-12): > 5.12 µM
IC50 (NH-12; nh-12): > 5.12 µM
IC50 (OE19; oe19): > 5.12 µM
IC50 (OMC-1; omc-1): > 5.12 µM
IC50 (OVCAR-3; ovcar-3): 0.679 µM and 3.92 µM
IC50 (RH-1; rh-1): > 5.12 µM
IC50 (SK-MEL-30): > 5.12 µM
IC50 (SK-PN-DW): > 5.12 µM
IC50 (SW756; Homo sapiens, SW756): > 5.12 µM
IC50 (SW756; sw756): > 5.12 µM
IC50 (SW 954; sw 954): 4.5 µM and > 5.12 µM
IC50 (T-24; t-24): > 5.12 µM
IC50 (CWR22R; Homo sapiens, 22Rv1): > 5.12 µM
IC50 (CWR22R; cwr22r): > 5.12 µM
IC50 (A204; Homo sapiens, A204): > 5.12 µM
IC50 (A204; a204): 2.77 µM
IC50 (ABC-1; abc-1): > 5.12 µM
IC50 (ACN; Homo sapiens, ACN): > 5.12 µM
IC50 (ACN; acn): > 5.12 µM
IC50 (BB49-HNC; bb49-hnc): > 5.12 µM and 0.73 µM
IC50 (BV-173): > 5.12 µM
IC50 (TYK-nu; tyk-nu): > 5.12 µM
IC50 (U-87 MG): > 5.12 µM
IC50 (YAPC; yapc): > 5.12 µM
IC50 (CGTH-W-1; cgth-w-1): > 5.12 µM
IC50 (COLO-678; colo-678): > 5.12 µM

Nc1ccn([C@@H]2O[C@H](CO)[C@@H](O)[C@@H]2O)c(=O)n1 [CYTARABINE]
IC50 (COLO-792; Homo sapiens, COLO-792): 1.05 µM
IC50 (COLO-829; Homo sapiens, COLO-829): 1.86 µM
IC50 (DOHH-2): 1.38 µM
IC50 (DSH1; Homo sapiens, DSH1): > 2 µM
IC50 (ES7; Homo sapiens, ES7): 0.257 µM
IC50 (EOL1): 0.803 µM
IC50 (GI-1; Homo sapiens, GI-1): 0.339 µM
IC50 (HCC38; Homo sapiens, HCC38): 1.88 µM
IC50 (HCT-116; Homo sapiens, HCT-116): 0.245 µM
IC50 (HGC-27; Homo sapiens, HGC-27): 0.455 µM
IC50 (HN; Homo sapiens, HN): 0.221 µM
IC50 (HO-1-N-1; Homo sapiens, HO-1-N-1): 0.691 µM
IC50 (HuTu80; Homo sapiens, HuTu80): 0.561 µM
IC50 (Huh-7; Homo sapiens, Huh-7): > 2 µM
IC50 (K5; Homo sapiens, K5): 0.0432 µM
IC50 (KINGS-1; Homo sapiens, KINGS-1): > 2 µM
IC50 (KM-H2): > 2 µM
IC50 (KU-19-19; Homo sapiens, KU-19-19): > 2 µM
IC50 (KYSE-410; Homo sapiens, KYSE-410): > 2 µM
IC50 (LB1047-RCC; Homo sapiens, LB1047-RCC): 0.108 µM
IC50 (MFE-280; Homo sapiens, MFE-280): > 2 µM
IC50 (MFM-223; Homo sapiens, MFM-223): > 2 µM
IC50 (MHH-ES-1; Homo sapiens, MHH-ES-1): 0.323 µM
IC50 (MKN-45; Homo sapiens, MKN-45): 1.65 µM
IC50 (MLMA; Homo sapiens, MLMA): 0.0555 µM
IC50 (NB10; Homo sapiens, NB10): 0.188 µM
IC50 (NCI-H1650; Homo sapiens, NCI-H1650): > 2 µM
IC50 (NCI-H1792; Homo sapiens, NCI-H1792): 1.42 µM
IC50 (NCI-H2347; Homo sapiens, NCI-H2347): > 2 µM
IC50 (NCI-H526): > 2 µM
IC50 (NH-12; Homo sapiens, NH-12): 1.16 µM
IC50 (OE19; Homo sapiens, OE19): > 2 µM
IC50 (OMC-1; Homo sapiens, OMC-1): 0.832 µM
IC50 (OVCAR-3; Homo sapiens, OVCAR-3): > 2 µM
IC50 (RH-1; Homo sapiens, RH-1): 0.328 µM
IC50 (SK-MEL-30): > 2 µM
IC50 (SK-PN-DW): 0.416 µM
IC50 (SW756; Homo sapiens, SW756): 0.719 µM
IC50 (SW 954; Homo sapiens, SW 954): > 2 µM
IC50 (T-24; Homo sapiens, T-24): 0.0786 µM
IC50 (CWR22R; Homo sapiens, 22Rv1): > 2 µM
IC50 (A204; Homo sapiens, A204): 0.311 µM
IC50 (ABC-1; Homo sapiens, ABC-1): 1.52 µM
IC50 (ACN; Homo sapiens, ACN): > 2 µM
IC50 (BB49-HNC; Homo sapiens, BB49-HNC): > 2 µM
IC50 (BV-173): 0.516 µM
IC50 (TYK-nu; Homo sapiens, TYK-nu): 0.661 µM
IC50 (U-87 MG): 1.74 µM
IC50 (YAPC; Homo sapiens, YAPC): > 2 µM
IC50 (CGTH-W-1; Homo sapiens, CGTH-W-1): 0.182 µM
IC50 (COLO-678; Homo sapiens, COLO-678): > 2 µM

— ChEMBL document CHEMBL1201861, “Genomics of Drug Sensitity in Cancer screening data, Wellcome Trust Sanger Institute”
